Source: patent publication US8163718B2, “Nucleoside analogues containing phosphonate or phosphonamide groups” (Gilead Sciences, Inc., priority 2008, dated 2012)

Each molecule was assayed on A549 (assay: Cytostatic cell culture assay (GI50), SRB). Details: Homo sapiens, A549, 120 h; 5 days incubation.
Type: cell-based
Excerpt: (§1) The assay is based on quantification of cell counts by a colorimetric detection of the cell associated proteins. The assay relies on the ability of sulforhodamine B (SRB) to bind to protein components of cells that have been fixed to tissue-culture plates by trichloroacetic acid (TCA). SRB is a bright-pink aminoxanthene dye with two sulfonic groups that bind to basic amino-acid residues under mild acidic conditions, and dissociate under basic conditions. As the binding of SRB is stoichiometric, the amount of dye extracted from stained cells is directly proportional to the cell mass.
(§2) Cell lines: All cell lines were obtained from ATCC (Manassas, Va.). Cultivation media containing Glutamax, and trypsin were purchased from Invitrogen (Carlsbad, Calif.). Doxorubicin, Clofarabine, TCA and SRB were from Sigma-Aldrich (St. Louis, Mo.). Gemcitabine was obtained from Moravek Biochemicals (Brea, Calif.)
(§3) • 1. Trypsinize the sub-confluent cells, count them, and adjust the cell concentrations according to the cell counts listed in Table 1. • 2. Distribute the cells into the 96-well plates in 150 μL of media. Incubate the plates overnight in humidified CO2 incubator at 37° C. • 3. Fix one plate of each cell line with TCA. Discard the cultivation media from the plates by flicking them gently and add 100 ul cold 10% (vol/vol) TCA to each well. Incubate the plates at 4 degree refrigerator for 1 hour. Discard TCA from the plates by flicking them gently. Rinse plates four times in a washing basin containing tap water. Store the plates at room temperature. These plates represent cell counts on day zero. • 4. Prepare a set of medium solutions containing various concentrations of tested compounds by making 5-fold serial dilutions in 96-well plate. Add 50 μL of the diluted compounds per well. Include controls with untreated cells and cells treated with doxorubicin, clofarabine and gemcitabine. • 5. Incubate the plates for 5 days at 37° C. • 6. Fix the plates with TCA. Discard the cultivation media from the plates by flicking them gently and add 100 ul cold 10% (vol/vol) TCA to each well. Incubate the plates at 4 degree refrigerator for 1 hour. Discard TCA from the plates by flicking them gently. Rinse plates four times in a washing basin containing tap water. • 7. Remove excess water by tapping the plates face down, gently on a paper towel. Allow the plates to air-dry at room temperature. • 8. Add 100 ul of 0.057% SRB solution in 1% (vol/vol) acetic acid to each well of the plates fixed with TCA on day zero and five. Leave at room temperature for 30 minutes. • 9. Flick the plates gently to discard SRB. Rinse the plates four times with 1% (vol/vol) Acetic Acid. • 10. Store the plates at 37 degree incubator to facilitate faster drying. • 11. Once the plates are completely dry, add 200 ul of 10 mM Tris base solution (pH 10.5) to each well. Leave at room temperature for 30 minutes for SRB to solubilize. • 12. Measure the OD at 500 nm in a microplate reader • 13. Calculate the percentage of cell-growth inhibition using the next formula: % of control cell growth=100×(ODsample−mean ODday0)/(ODneg control−mean ODday0)
(§4) For GI50 determination, plot a dose-response curve between the compound concentration and percent of growth inhibition. GI50 values can be derived by fitting dose-response curves using sigmoidal dose response equation.

Row | SMILES | GI50
1 | CCOC(=O)[C@H](C)NP(=O)(COCCn1cnc2c(OC3CCCC3)nc(N)nc21)N[C@@H](C)C(=O)OCC [Example 46] | 474 nM
2 | CCCOc1nc(N)nc2c1ncn2CCOCP(=O)(N1CCC[C@H]1C(=O)OC)N1CCC[C@H]1C(=O)OC [Example 22] | 640 nM

Other lines, results leading:

Row | GI50 | SMILES
3 | 762 nM | CCOC(=O)[C@H](C)NP(=O)(COCCn1cnc2c(OC(C)C)nc(N)nc21)N[C@@H](C)C(=O)OCC [Example 33]
4 | 736 nM | CCCOc1nc(N)nc2c1ncn2CCOCP(=O)(N[C@@H](C)C(=O)OC(C)C)N[C@@H](C)C(=O)OC(C)C [Example 16]
5 | 458 nM | CCOC(=O)[C@H](C)NP(=O)(COCCn1cnc2c(OCC)nc(N)nc21)N[C@@H](C)C(=O)OCC [Example 37]

What follows are molecules tested on BT-549 (assay: Cytostatic cell culture assay (GI50), SRB). Details: Homo sapiens, BT-549, 120 h; 5 days incubation.
Type: cell-based
Excerpt: as §1, §2, §3, §4

Row | SMILES | GI50
6 | CCOC(=O)[C@H](C)NP(=O)(COCCn1cnc2c(OC3CCCC3)nc(N)nc21)N[C@@H](C)C(=O)OCC [Example 46] | 286 nM
7 | CCCOc1nc(N)nc2c1ncn2CCOCP(=O)(N1CCC[C@H]1C(=O)OC)N1CCC[C@H]1C(=O)OC [Example 22] | 116 nM

The next lines start with the values.

Row | GI50 | SMILES
8 | 423 nM | CCOC(=O)[C@H](C)NP(=O)(COCCn1cnc2c(OC(C)C)nc(N)nc21)N[C@@H](C)C(=O)OCC [Example 33]
9 | 1830 nM | CCCOc1nc(N)nc2c1ncn2CCOCP(=O)(N[C@@H](C)C(=O)OC(C)C)N[C@@H](C)C(=O)OC(C)C [Example 16]
10 | 292 nM | CCOC(=O)[C@H](C)NP(=O)(COCCn1cnc2c(OCC)nc(N)nc21)N[C@@H](C)C(=O)OCC [Example 37]

What follows are molecules tested on Du-145 (assay: Cytostatic cell culture assay (GI50), SRB). Details: Homo sapiens, DU-145, 120 h; 5 days incubation.
Type: cell-based
Excerpt: as §1, §2, §3, §4

Row | SMILES | GI50
11 | CCOC(=O)[C@H](C)NP(=O)(COCCn1cnc2c(OC3CCCC3)nc(N)nc21)N[C@@H](C)C(=O)OCC [Example 46] | 17 nM
12 | CCCOc1nc(N)nc2c1ncn2CCOCP(=O)(N1CCC[C@H]1C(=O)OC)N1CCC[C@H]1C(=O)OC [Example 22] | 35 nM

Next, values leading:

Row | GI50 | SMILES
13 | 18 nM | CCOC(=O)[C@H](C)NP(=O)(COCCn1cnc2c(OC(C)C)nc(N)nc21)N[C@@H](C)C(=O)OCC [Example 33]
14 | 67 nM | CCCOc1nc(N)nc2c1ncn2CCOCP(=O)(N[C@@H](C)C(=O)OC(C)C)N[C@@H](C)C(=O)OC(C)C [Example 16]
15 | 23 nM | CCOC(=O)[C@H](C)NP(=O)(COCCn1cnc2c(OCC)nc(N)nc21)N[C@@H](C)C(=O)OCC [Example 37]

Each molecule was assayed on HCT-116 (assay: Cytostatic cell culture assay (GI50), SRB). Details: Homo sapiens, HCT-116, 120 h; 5 days incubation.
Type: cell-based
Excerpt: as §1, §2, §3, §4

Row | SMILES | GI50
16 | CCOC(=O)[C@H](C)NP(=O)(COCCn1cnc2c(OC3CCCC3)nc(N)nc21)N[C@@H](C)C(=O)OCC [Example 46] | 269 nM
17 | CCCOc1nc(N)nc2c1ncn2CCOCP(=O)(N1CCC[C@H]1C(=O)OC)N1CCC[C@H]1C(=O)OC [Example 22] | 194 nM

Results, then the molecule that gave them:

Row | GI50 | SMILES
18 | 652 nM | CCOC(=O)[C@H](C)NP(=O)(COCCn1cnc2c(OC(C)C)nc(N)nc21)N[C@@H](C)C(=O)OCC [Example 33]
19 | 1320 nM | CCCOc1nc(N)nc2c1ncn2CCOCP(=O)(N[C@@H](C)C(=O)OC(C)C)N[C@@H](C)C(=O)OC(C)C [Example 16]
20 | 509 nM | CCOC(=O)[C@H](C)NP(=O)(COCCn1cnc2c(OCC)nc(N)nc21)N[C@@H](C)C(=O)OCC [Example 37]

Each molecule was assayed on HCT-15 (assay: Cytostatic cell culture assay (GI50), SRB). Details: Homo sapiens, HCT-15, 120 h; 5 days incubation.
Type: cell-based
Excerpt: as §1, §2, §3, §4

Row | SMILES | GI50
21 | CCOC(=O)[C@H](C)NP(=O)(COCCn1cnc2c(OC3CCCC3)nc(N)nc21)N[C@@H](C)C(=O)OCC [Example 46] | 6300 nM
22 | CCCOc1nc(N)nc2c1ncn2CCOCP(=O)(N1CCC[C@H]1C(=O)OC)N1CCC[C@H]1C(=O)OC [Example 22] | > 10000 nM

Further lines, results first:

Row | GI50 | SMILES
23 | > 10000 nM | CCOC(=O)[C@H](C)NP(=O)(COCCn1cnc2c(OC(C)C)nc(N)nc21)N[C@@H](C)C(=O)OCC [Example 33]
24 | > 10000 nM | CCCOc1nc(N)nc2c1ncn2CCOCP(=O)(N[C@@H](C)C(=O)OC(C)C)N[C@@H](C)C(=O)OC(C)C [Example 16]
25 | > 10000 nM | CCOC(=O)[C@H](C)NP(=O)(COCCn1cnc2c(OCC)nc(N)nc21)N[C@@H](C)C(=O)OCC [Example 37]

The molecules below were run on Hs-578 (assay: Cytostatic cell culture assay (GI50), SRB). Details: Hs578, 120 h; 5 days incubation.
Type: cell-based
Excerpt: as §1, §2, §3, §4

Row | SMILES | GI50
26 | CCOC(=O)[C@H](C)NP(=O)(COCCn1cnc2c(OC3CCCC3)nc(N)nc21)N[C@@H](C)C(=O)OCC [Example 46] | 96 nM
27 | CCOC(=O)[C@H](C)NP(=O)(COCCn1cnc2c(OC(C)C)nc(N)nc21)N[C@@H](C)C(=O)OCC [Example 33] | 243 nM
28 | CCCOc1nc(N)nc2c1ncn2CCOCP(=O)(N[C@@H](C)C(=O)OC(C)C)N[C@@H](C)C(=O)OC(C)C [Example 16] | 870 nM
29 | CCCOc1nc(N)nc2c1ncn2CCOCP(=O)(N1CCC[C@H]1C(=O)OC)N1CCC[C@H]1C(=O)OC [Example 22] | 82 nM
30 | CCOC(=O)[C@H](C)NP(=O)(COCCn1cnc2c(OCC)nc(N)nc21)N[C@@H](C)C(=O)OCC [Example 37] | 198 nM

What follows are molecules tested on NCI-H23 (assay: Cytostatic cell culture assay (GI50), SRB). Details: Homo sapiens, NCI-H23, 120 h; 5 days incubation.
Type: cell-based
Excerpt: as §1, §2, §3, §4

Row | SMILES | GI50
31 | CCOC(=O)[C@H](C)NP(=O)(COCCn1cnc2c(OC3CCCC3)nc(N)nc21)N[C@@H](C)C(=O)OCC [Example 46] | 23 nM
32 | CCCOc1nc(N)nc2c1ncn2CCOCP(=O)(N1CCC[C@H]1C(=O)OC)N1CCC[C@H]1C(=O)OC [Example 22] | 38 nM

Other lines, results leading:

Row | GI50 | SMILES
33 | 19 nM | CCOC(=O)[C@H](C)NP(=O)(COCCn1cnc2c(OC(C)C)nc(N)nc21)N[C@@H](C)C(=O)OCC [Example 33]
34 | 92 nM | CCCOc1nc(N)nc2c1ncn2CCOCP(=O)(N[C@@H](C)C(=O)OC(C)C)N[C@@H](C)C(=O)OC(C)C [Example 16]
35 | 31 nM | CCOC(=O)[C@H](C)NP(=O)(COCCn1cnc2c(OCC)nc(N)nc21)N[C@@H](C)C(=O)OCC [Example 37]

What follows are molecules tested on PC3 (assay: Cytostatic cell culture assay (GI50), SRB). Details: Homo sapiens, PC-3, 120 h; 5 days incubation.
Type: cell-based
Excerpt: as §1, §2, §3, §4

Row | SMILES | GI50
36 | CCOC(=O)[C@H](C)NP(=O)(COCCn1cnc2c(OC3CCCC3)nc(N)nc21)N[C@@H](C)C(=O)OCC [Example 46] | 85 nM
37 | CCCOc1nc(N)nc2c1ncn2CCOCP(=O)(N1CCC[C@H]1C(=O)OC)N1CCC[C@H]1C(=O)OC [Example 22] | 121 nM

Further lines, results first:

Row | GI50 | SMILES
38 | 190 nM | CCOC(=O)[C@H](C)NP(=O)(COCCn1cnc2c(OC(C)C)nc(N)nc21)N[C@@H](C)C(=O)OCC [Example 33]
39 | 591 nM | CCCOc1nc(N)nc2c1ncn2CCOCP(=O)(N[C@@H](C)C(=O)OC(C)C)N[C@@H](C)C(=O)OC(C)C [Example 16]
40 | 146 nM | CCOC(=O)[C@H](C)NP(=O)(COCCn1cnc2c(OCC)nc(N)nc21)N[C@@H](C)C(=O)OCC [Example 37]
